Laboratory results from PubChem BioAssay AID720563 (Broad Institute, 2013).
“And” between values parts separate entries of the source, which are not always exact repeats. Equal values may be shown once. The source made the active and inactive calls.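 The calls were made as follows: active = compounds whose fitted AC50 lies at or below twice their top valid test dose; inconclusive = flat curve between -70 and -30 percent, or unreliable curve fit; inactive = the rest.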

Biological target: Transforming acidic coiled-coil-containing protein 3 (Homo sapiens) (UniProt Q9Y6A5)
Experiment: ARNT/TACC3 binding disruptors, dose response, biochemical, AlphaScreen, dry powder (AID 720563)
Settings: AlphaScreen His-ARNT PAS-B/GST-TACC3 binding, luminescence

AC50 | Compound
1680 nM | O=C(CSc1ccc(-c2ccccn2)nn1)N1CCCC1
11400 nM | CC1CCN(S(=O)(=O)c2ccc(C(=O)Nc3nnc(-c4ccno4)o3)cc2)CC1
49800 nM | CC1CCN(S(=O)(=O)c2ccc(C(=O)Nc3nnc(-c4cccs4)o3)cc2)CC1
368 nM and 190 nM | c1ccc(-c2nc(-c3ccncc3)n[nH]2)nc1
35600 nM | CC1CC(C)CN(S(=O)(=O)c2ccc(C(=O)Nc3nnc(C4=COCCO4)o3)cc2)C1 (stereo unspecified)
11200 nM | CC1CCCN(S(=O)(=O)c2ccc(C(=O)Nc3nnc(C4=COCCO4)o3)cc2)C1 (stereo unspecified)
> 136000 nM (inactive) | Cc1ccc(C(=O)Nc2nc(-c3ccccc3)cs2)o1
34100 nM | CC1CCN(S(=O)(=O)c2ccc(C(=O)Nc3nnc(-c4ccco4)o3)cc2)CC1
1750 nM | Cc1c(C(=O)N(C)C)sc2nc(-c3ccccn3)[nH]c(=O)c12
20400 nM | CC1CCN(S(=O)(=O)c2ccc(C(=O)Nc3nnc(-c4ccccc4)o3)cc2)CC1
820 nM | O=C(Nc1nc(-c2ccccn2)cs1)c1ccco1
1240 nM | CCc1cc2c(=O)[nH]c(-c3ccccn3)nc2s1
630 nM | COC(=O)c1ccc(NC(=O)CSc2ccc(-c3ccccn3)nn2)cc1
649 nM | Nc1nc(-c2ccccn2)nc(N)c1Cc1ccc(Cl)cc1Cl
869 nM | O=C(CSc1ccc(-c2ccccn2)nn1)Nc1ccccc1
1910 nM | COC(=O)Cc1cc(=O)n(-c2nc3ccccc3[nH]2)[nH]1
17600 nM | CC1CCN(S(=O)(=O)c2ccc(C(=O)Nc3nnc(C4=COCCO4)o3)cc2)CC1
819 nM | Cc1cccc(NC(=O)CSc2ccc(-c3ccccn3)nn2)c1C
5100 nM | CC(C)C(=O)NC(c1ccco1)c1cc(Cl)c2cccnc2c1O (stereo unspecified)

AC50 | Compound
452 nM | CC(C)C(=O)NC(c1ccco1)c1ccc2cccnc2c1O (stereo unspecified)
39600 nM | CC1CCN(S(=O)(=O)c2ccc(C(=O)Nc3nnc(-c4ccccn4)o3)cc2)CC1
1390 nM | CCCCC(=O)NC(c1ccco1)c1ccc2cccnc2c1O (stereo unspecified)
342 nM | O=C(Nc1nc(-c2ccccn2)cs1)c1ccc(S(=O)(=O)N2CCOCC2)cc1
1110 nM | Cc1ccc(C(=O)Nc2nc(-c3ccccn3)cs2)cc1S(=O)(=O)N1CCOCC1
> 136000 nM (inactive) | CC(C)Cc1nnc(NC(=O)c2cccc(S(=O)(=O)N3CCOCC3)c2)s1
806 nM | Cc1ccc(C(=O)Nc2nc(-c3ccccn3)cs2)o1
16700 nM | CC1CCN(S(=O)(=O)c2ccc(C(=O)Nc3nnc(C4CC4)o3)cc2)CC1
14300 nM | Cc1nnc(NC(=O)c2ccc(S(=O)(=O)N3CCCCC3)cc2)o1
5810 nM | CSc1ccc(-c2nnc(NC(=O)c3ccc(S(=O)(=O)N4CCC(C)CC4)cc3)o2)cc1
17800 nM | COc1ccc(-c2nnc(NC(=O)c3ccc(S(=O)(=O)N4CCC(C)CC4)cc3)o2)cc1
262 nM | O=C(CSc1ccc(-c2ccccn2)nn1)Nc1nccs1
65900 nM | O=C(Nc1nc(-c2ccncc2)cs1)c1cccc(S(=O)(=O)N2CCOCC2)c1
23000 nM | O=C(Nc1nnc(-c2ccc(F)cc2)o1)c1ccc(S(=O)(=O)N2CCCCC2)cc1
884 nM | O=C(CSc1n[nH]c(-c2ccccn2)n1)Nc1ccc(Cl)cc1
797 nM | CC(C)CC(=O)NC(c1cccs1)c1ccc2cccnc2c1O (stereo unspecified)
1490 nM | O=C(Cc1ccccc1)NC(c1ccco1)c1ccc2cccnc2c1O (stereo unspecified)
19100 nM | O=C(Nc1nnc(C2=COCCO2)o1)c1ccc(S(=O)(=O)N2CCCCC2)cc1
1630 nM | O=C(CSc1ccc(-c2ccccn2)nn1)NC1CCCCC1

Compound | AC50
CCn1nc(-c2cccnc2)nc2c(=O)n(C)c(=O)nc1-2 | 78.4 nM

Same assay, conditions: AlphaScreen His-ARNT PAS-B/GST-TACC3 binding, luminescence; at 68 µM (top of the series)

activity change, negative = inhibition | Compound
inactive | FC(F)(F)c1cc(-c2nn[nH]n2)cc(C(F)(F)F)c1
inactive | Cc1ccc(S(=O)(=O)CCc2nnc(NC(=O)c3ccccc3)s2)cc1
